This note sets out measurements from US9056835B2, “LPA2 receptor-specific benzoic acid derivatives” (University of Tennessee Research Foundation, priority 2012, dated 2015).

Test [1] concerns vector- and LPA2-transduced MEF cells. Put plainly: Cell proliferation assay. The format is cell-based, mouse. The conditions noted are these: LPA 1 μM, OTP 1 μM, GRI977143 10 μM; for cell growth: LPA2-transduced MEF; for cell proliferation: vector-transduced MEF. The protocol:
Mouse embryonic fibroblast (MEF) cells were isolated from E13.5 LPA1&2 double knockout (DKO) embryos. MEFs were transduced with empty vector or LPA2-containing lentiviruses and selected with 1.5 μg/ml puromycin. Cells were maintained in Dulbecco's modified Eagle medium (DMEM) supplemented with 10% (V/V) fetal bovine serum (FBS), 2 mM L-glutamine, 100 U/mL penicillin, and 100 μg/mL streptomycin. Serum-free medium contained 0.1% (W/V) BSA in DMEM. The rat intestinal epithelial cell line 6 (IEC-6) was obtained from the American Type Culture Collection (Rockville, Md.) at passage 13; passages 16-21 were used in all experiments. IEC-6 cells were maintained in a humidified 37° C. incubator in an atmosphere of 90% air and 10% CO2. Growth medium consisted of DMEM supplemented with 5% heat inactivated FBS, 10 μg/mL insulin, and 50 μg/mL gentamycin. The composition of the serum-starvation medium was the same as that of the full growth medium except that it contained no FBS. The McArdle rat hepatoma cell line (RH7777) stably expressing LPA2 receptors was a gift from Dr. Fumikazu Okajima (Gunma University, Maebashi, Japan). RH7777 cells stably expressing LPA1 or LPA3 receptors were generated in-house and had been characterized earlier. Wild type and LPA receptor (LPAR) stably transfected RH7777 cells were grown in DMEM supplemented with 10% FBS and 2 mM L-glutamine in the presence of 250 μg/ml G418. Chinese hamster ovary (CHO) cells stably expressing either vector or LPA4 receptor were a kind gift from Dr. Takao Shimizu (Tokyo University; Tokyo, Japan). Cells were cultured in Ham's F12 medium containing 10% FBS, 2 mM L-glutamine, and 350 μg/ml G418. Rat neuroblastoma cells (B103) were transduced with the lentivirus harboring wild type of FLAG-LPA5 and selected with puromycin to establish the stable cell lines. The stable cells were maintained in DMEM supplemented with 10% FBS and 0.4 μg/ml puromycin. GPR87- and P2Y10-expressing CHO cells and vector-transfected control cells were a gift from Dr. Norihisha Fujita (Ritsumeikan University; Shiga, Japan). The highly invasive MM1 rat hepatoma cells (gift from Dr. Michiko Mukai, Osaka University, Japan) were grown in suspension in DMEM supplemented with 10% (V/V) FBS, 2 mM L-glutamine, 100 U/mL penicillin, and 100 μg/mL streptomycin. Human umbilical vein endothelial cells (HUVEC) were purchased from VEC Technologies Inc. (Rensselaer, N.Y., USA) and cultured in MCDB-131 complete medium supplemented with 10% (V/V) FBS, 90 μg/mL heparin, 10 ng/mL EGF, 1 μg/mL hydrocortisone, 0.2 mg/mL EndoGrowth (VEC Technologies Inc.) supplement, 100 U/mL penicillin G, 100 μg/mL streptomycin, and 25 μg/mL amphotericin B.
For determination of the effect of the LPA receptor ligands on cell growth, vector- and LPA2-transduced MEF cells (2×10^4) were plated in each well of a 24-well plate in full growth medium. Cells were counted the next day and the medium was replaced with medium containing 1.5% (V/V) FBS supplemented with or without 1 μM LPA, 1 μM OTP, or 10 μM GRI977143. Media containing LPA, OTP, and GRI977143 were refreshed every 24 h. The growth rate was measured by counting the number of cells in triplicate using the Z1 Coulter Particle Counter (Beckman Coulter; Hileah, Fla.) as a function of time.

Test [2] shares this test system. Put plainly: Serum withdrawal-induced apoptosis (caspase activity, DNA fragmentation). The class given is cell-based, mouse. The settings on record: for reduction of apoptotic indicators: vector-transduced MEF. The protocol:
Experiments were performed on vector- and LPA2-transduced MEF cells. To measure caspase 3, 7, 8, or 9 activity and DNA fragmentation, cells were plated in 48-well plates (2×10^4 cells/well). To detect PARP-1 cleavage and Bax translocation, 1.5×10^6 cells were plated in 10-cm dishes and cultured overnight in full growth medium. The next morning, the growth medium was replaced by serum-starvation medium and cells were pretreated for 1 h with LPA (1-10 μM), OTP (1-10 μM), GRI977143 (1-10 μM), or vehicle. Caspase activity, DNA fragmentation, PARP-1 cleavage, and Bax translocation were measured 5 h after incubation with 1.7 μM Adriamycin or 24 h after serum withdrawal.
Caspase-Glow® 3/7, Caspase-Glow® 8 and Caspase-Glow® 9 reagents were purchased from Promega (Madison, Wis.) and used according to the manufacturer's instructions. Briefly, cells were lysed by adding 50 μl of lysis reagent per well, followed by shaking for 30 min at room temperature. […] lysate were transferred to a 96-well white-wall plate, and luminescence was measured using a BioTek® (Winooski, Vt.) plate reader.
Apoptotically-challenged cells were washed twice with PBS, and a quantitative DNA fragmentation assay was carried out using a Cell Death Detection ELISA PLUS kit (Roche Diagnostics, Penzberg, Germany) and normalized to protein concentration using the BCA Protein Assay Kit (Thermo Fisher Scientific, Inc.; Rockford, Ill.) as described previously (Valentine et al., 2010). Aliquots of nuclei-free cell lysate were placed in streptavidin-coated wells and incubated with anti-histone-biotin antibody and anti-DNA peroxidase-conjugated antibody for 2 h at room temperature. After the incubation, the sample was removed, and the wells were washed and incubated with 100 μl 2,2′-azino-di[3-ethylbenzthiazolin-sulfonate substrate at room temperature before the absorbance was read at 405 nm. Results were expressed as absorbance at 405 nm/min/mg protein as detailed in our previous report (Ray et al., Mdm2 inhibition induces apoptosis in p53 deficient human colon cancer cells by activating p73- and E2F1-mediated expression of PUMA and Siva-1. Apoptosis (2011) 16(1): 35-44).

Turning to `O=C(O)c1ccccc1SCCCN1C(=O)c2cccc3cccc(c23)C1=O` [GRI977143], in test [1], the cell growth result is recorded as “significant from 24 hours onwards” and the cell proliferation result is on record as “did not cause a significant increase in vector cell proliferation except at 72 hours”. In test [2] (LPA2-transduced MEF, 10 μM), the DNA fragmentation result is “attenuated DNA fragmentation”; the “reduction of caspase 3, 7, 8, and 9 activation” value was “highly effective”. Moreover, the “reduction of apoptotic indicators” value in test [2] is “failed to cause any reduction”.
For `CCCCCCCC/C=C\CCCCCCCC(=O)OC[C@@H](O)COP(=O)(O)O` [LPA 18:1, Lysophosphatidic acid (18:1)], in test [1], the cell growth entry is reported as “significant from 24 hours onwards” and the cell proliferation result is listed as “no significant effect”. Further, the “reduction of apoptotic indicators” value in test [2] was “protected the vector-transduced MEF cells too”.
On the same counts, the results for octadecenyl thiophosphate [OTP] are “significant from 24 hours onwards”, “significantly (p<0.001) increased” and “protected the vector-transduced MEF cells too”.
